# Experimental data: patent publication US20070134231A1, “Method for prolonging activity of autodegradable enzymes and compositions thereof” (priority 2005, published 2007)
# Counter-ions that a name gives are not always drawn. Like-named read-outs stand apart in the source and are kept apart here. Where a SMILES comes first, the peptide text is derived from it.
# B1: plasmin: serine proteinase, formulated in buffered acidified water (reversibly inactive acidified plasmin) (protein, UniProt P00747 20-580; P00747 581-810, looked up)
# Plasmin heavy chain A: EPLDDYVNTQGASLFSVTKKQLGAGSIEECAAKCEEDEEFTCRAFQYHSKEQQCVIMAENRKSSIIIRMRDVVLFEKKVYLSECKTGNGKNYRGTMSKTKNGITCQKWSSTSPHRPRFSPATHPSEGLEENYCRNPDNDPQGPWCYTTDPEKRYDYCDILECEEECMHCSGENYDGKISKTMSGLECQAWDSQSPHAHGYIPSKFPNKNLKKNYCRNPDRELRPWCFTTDPNKRWELCDIPRCTTPPPSSGPTYQCLKGTGENYRGNVAVTVSGHTCQHWSAQTPHTHNRTPENFPCKNLDENYCRNPDGKRAPWCHTTNSQVRWEYCKIPSCDSSPVSTEQLAPTAPPELTPVVQDCYHGDGQSYRGTSSTTTTGKKCQSWSSMTPHRHQKTPENYPNAGLTMNYCRNPDADKGPWCFTTDPSVRWEYCNLKKCSGTEASVVAPPPVVLLPDVETPSEEDCMFGNGKGYRGKRATTVTGTPCQDWAAQEPHRHSIFTPETNPRAGLEKNYCRNPDGDVGGPWCYTTNPRKLYDYCDVPQCAAPSFDCGKPQVEPKKCPGR
# Plasmin light chain B: VVGGCVAHPHSWPWQVSLRTRFGMHFCGGTLISPEWVLTAAHCLEKSPRPSSYKVILGAHQEVNLEPHVQEIEVSRLFLEPTRKDIALLKLSSPAVITDKVIPACLPSPNYVVADRTECFITGWGETQGTFGAGLLKEAQLPVIENKVCNRYEFLNGRVQSTELCAGHLAGGTDSCQGDSGGPLVCFEKDKYILQGVTSWGLGCARPNKPGVYVRVSRFVTWIEGVMRNN
# modifications: Plasmin acidified formulation
# What was measured:
# [1] = at 25° C.; cited from earlier work
# [2] = target: T1, human plasmin (Homo sapiens, UniProt P00747); experiment: Plasmin precipitation study in buffer solutions (PBS, pH of about 7.4); assay type: physicochemical; conditions: for Concentration Range Tested That Did Not Prevent Precipitation at pH of About 7.4: plasmin 1 mg/ml
# T1 construct: which cleave a single-chain plasminogen molecule at the Arg^560 -Val^561 peptide bond, producing active plasmin; purchased Talecris, Inc. (Research Triangle Park, North Carolina)
# Experimental: This acidified, lyophilized plasmin was reconstituted with 0.9% (by weight) NaCl solution to a concentration of 10 mg/ml. […] Combinations of ε-aminocaproic acid and gelatin or glycerin were also tested. The concentration of plasmin in the additive-containing buffer was 1 mg/ml.
# [3] = buffered acidified water, cited from earlier work
# [4] = single additive, pH of about 7.4, plasmin 1 mg/ml, observed within 2 hours
molecule,measurement,setting,value
"3-(N,N-bis{2-hydroxyethyl}amino)-2-hydroxypropane [DIPSO]",pKa,[1],7.52
NCCCCC(=O)O [5-aminovaleric acid],Minimum Concentration of Additive Required to Prevent Visually Observed Plasmin Precipitation,[2]; [4],1 mM
NCCCCCCC(=O)O [7-aminoheptanoic acid],Minimum Concentration of Additive Required to Prevent Visually Observed Plasmin Precipitation,[2]; [4],5 mM
O=S(=O)(O)CCNC1CCCCC1 [CHES],pKa,[1],9.5
OC[C@@H](O)[C@@H](O)[C@H](O)[C@@H](O)CO [D-sorbitol],Minimum Concentration of Additive Required to Prevent Visually Observed Plasmin Precipitation,[2]; [4],12% (w/v)
N=C(N)NCCC[C@H](N)C(=O)O [L-arginine],Minimum Concentration of Additive Required to Prevent Visually Observed Plasmin Precipitation,[2]; [4],50 mM
CSCC[C@H](N)C(=O)O [L-methionine],Concentration Range Tested That Did Not Prevent Precipitation at pH of About 7.4,[2]; observed within 2 hours,0.2%
"O=S(=O)(O)CCCCN1CCOCC1 [MOBS, 4-{N-morpholino}butanesulfonic acid]",pKa,[1],7.6
"CN(C)CC(=O)O [N,N-dimethylglycine]",Concentration Range Tested That Did Not Prevent Precipitation at pH of About 7.4,[2]; observed within 2 hours,0.5-1 M
CC(=O)N[C@@H](CCCNC(=N)N)C(=O)O [N-α-acetyl-L-arginine],Minimum Concentration of Additive Required to Prevent Visually Observed Plasmin Precipitation,[2]; [4],50 mM
"O=S(=O)(O)CC(O)CNC(CO)(CO)CO (stereo not shown) [TAPSO, 2-hydroxy-3{tris(hydroxymethyl)methylamino}-1-propanesulfonic acid]",pKa,[1],7.61
"O=S(=O)(O)CCNC(CO)(CO)CO [TES, N-tris{hydroxymethyl}-methyl-2-aminoethanesulfonic acid]",pKa,[1],7.4
O=C(O)CCCCC(=O)O [adipic acid],Concentration Range Tested That Did Not Prevent Precipitation at pH of About 7.4,[2]; observed within 2 hours,50 mM
"C[N+](C)(C)CC(=O)O [betaine, (carboxymethyl)trimethylammonium inner salt]",Minimum Concentration of Additive Required to Prevent Visually Observed Plasmin Precipitation,[2]; [4],0.2 M
OCC(O)CO [glycerin],Minimum Concentration of Additive Required to Prevent Visually Observed Plasmin Precipitation,"[2]; Test No. 10: glycerin in combination with 0.1 mM ε-aminocaproic acid, pH of about 7.4",6% (v/v)
same,Minimum Concentration of Additive Required to Prevent Visually Observed Plasmin Precipitation,[2]; [4],10% (by weight)
NCC(=O)O [glycine],Concentration Range Tested That Did Not Prevent Precipitation at pH of About 7.4,[2]; observed within 2 hours,0.1 M
NCC(=O)NCC(=O)O [glycylglycine] (H-Gly-Gly-OH),Minimum Concentration of Additive Required to Prevent Visually Observed Plasmin Precipitation,[2]; [4],10 mM
O=C(O)C(=O)O [oxalic acid],Concentration Range Tested That Did Not Prevent Precipitation at pH of About 7.4,[2]; observed within 2 hours,50 mM
CC(O)CO (stereo not shown) [propylene glycol],Concentration Range Tested That Did Not Prevent Precipitation at pH of About 7.4,[2]; observed within 2 hours,2-20% v/v
"CNCC(=O)O [sarcosine, N-methylglycine]",Minimum Concentration of Additive Required to Prevent Visually Observed Plasmin Precipitation,[2]; [4],1 M
O=S(=O)([O-])[O-].[Na+].[Na+] [sodium sulfate],Concentration Range Tested That Did Not Prevent Precipitation at pH of About 7.4,[2]; observed within 2 hours,0.3-0.6 M
"NC[C@H]1CC[C@H](C(=O)O)CC1 [tranexamic acid, trans-4-(aminomethyl)cyclohexanecarboxylic acid, reference compound]",Minimum Concentration of Additive Required to Prevent Visually Observed Plasmin Precipitation,[2]; [4],0.5 mM
OC[C@H]1O[C@H](O[C@H]2O[C@H](CO)[C@@H](O)[C@H](O)[C@H]2O)[C@H](O)[C@@H](O)[C@@H]1O [trehalose],Concentration Range Tested That Did Not Prevent Precipitation at pH of About 7.4,[2]; observed within 2 hours,10%
NCC(=O)NCC(=O)NCC(=O)O [triglycine] (H-Gly-Gly-Gly-OH),Minimum Concentration of Additive Required to Prevent Visually Observed Plasmin Precipitation,[2]; [4],10 mM
NCCCC(=O)O [γ-aminobutyric acid],Minimum Concentration of Additive Required to Prevent Visually Observed Plasmin Precipitation,[2]; [4],5 mM
"NCCCCCC(=O)O [ε-aminocaproic acid, reference compound]",Minimum Concentration of Additive Required to Prevent Visually Observed Plasmin Precipitation,"[2]; Test No. 9: ε-aminocaproic acid in combination with gelatin 0.3% (w/v), pH of about 7.4",0.1 mM
same,Minimum Concentration of Additive Required to Prevent Visually Observed Plasmin Precipitation,"[2]; Test No. 10: ε-aminocaproic acid in combination with glycerin 6% (v/v), pH of about 7.4",0.1 mM
same,Minimum Concentration of Additive Required to Prevent Visually Observed Plasmin Precipitation,[2]; [4],1 mM
B1,storage stability,[3]; 4° C.,stable for at least nine months
same,storage stability,[3]; room temperature,stable for at least two months
